For data set [1] the following is noted: in human blood; cited from earlier work.
The conditions of data set [2]: in aquatic organisms; cited from earlier work.
The test system of another data set is Staphylococcus aureus. Put plainly: Broth microdilution MIC assay. In kind it is cell-based. Particulars: S. aureus (+); LB broth, 37° C. The text has this: (§1) The following microorganisms were used (American Type Culture Collection (ATCC), Manassas, Vir., or La Colección Española de Cultivos Tipo (CECT), Valencia, Spain): Gram-positive bacteria Staphylococcus aureus ATCC 25923 and ATCC 6538, Staphylococcus epidermidis CECT 4184, Lactococcus lactis ATCC 7963, Streptococcus phocae ATCC51973, Lactococcus garvieae ATCC2155, Gram-negative bacteria Pseudomonas aeruginosa CECT 110 and ATCC 15692, Escherichia coli ATCC 11229, and Salmonella enterica ATCC 13311. The bacteria were grown at 37° C. in Luria-Bertani (LB) broth (Sigma-Aldrich Chemical Co.) (pH 7.3), which was also used for dilutions. The […] inhibitory concentration (MIC) values of PHMBG and the particles were determined in vitro using a broth microdilution assay. The polymer or nanoparticles were dissolved or dispersed, respectively, with brief sonication; into small stock samples of sterile deionized water (10 mL, 3 mg/mL). Serial dilutions between 5 and 300 mg/L final concentration in the liquid medium were dispensed into sterile 96-well polystyrene culture Corning® Costar® cell plates (Sigma-Aldrich Chemical Co.). The diluted samples were inoculated with a suspension of the test bacterium on the liquid medium to a final concentration of approximately 10^4 cfu/mL. The MIC was defined as the lowest concentration of PHMBG polymer, PHMBG-PEI-M or PHMBG-M/SiO2 particles that inhibited bacterial growth after […] at 37° C. Measurements were conducted in triplicate. The precision of the MIC values was limited by the dilution factor and was estimated to be ±5 mg/L, Negative control experiments were conducted with the dilutions without bactericidal additives and no reduction in bacterial counts after 24 h was observed.
(§2) For testing the antiseptic properties of the core-shell magnetic nanoparticles of the invention, five Gram-positive and three Gram-negative bacteria were chosen to represent a wide range of waterborne microorganisms, all of which are pathogenic with the exception of L. lactis, which is extensively used in buttermilk and cheese production. Gram-positive S. aureus and S. epidermidis are well-known human pathogens; S. phocae is a fish and seal pathogen; and L. garvieae causes septicemic infections of fish and is the main risk factor for the Mediterranean European trout industry. […] Both PHMBG-M/SiO2 (t) and PHMBG-M/SiO2 (s) particle species were tested, as well as PHMBG solutions and PHMBG-PEI-M particle suspensions.

In data set [3] the test system is Streptococcus phocae ATCC51973. Put plainly: Broth microdilution MIC assay. In kind it is cell-based. The following applies: S. phocae (+); LB broth, 37° C.
Source text: as §1, §2

The test system of data set [4] is Lactococcus lactis ATCC 7963. Description: Broth microdilution MIC assay. In kind it is cell-based. The following applies: L. lactis (+); LB broth, 37° C.
Source text: as §1, §2
(In broth dilution the organism is exposed to a series of concentrations in liquid medium.)

Data set [5] has as its system Salmonella enterica ATCC 13311. Put plainly: Broth microdilution MIC assay. In kind it is cell-based. Particulars: S. enterica (−); LB broth, 37° C.
Source text: as §1, §2

The next data set relates to Pseudomonas aeruginosa. Description: Broth microdilution MIC assay. In kind it is cell-based. Particulars: P. aeruginosa (−); LB broth, 37° C.
Source text: as §1, §2

Data set [6] has as its system Staphylococcus epidermidis CECT 4184. Put plainly: Broth microdilution MIC assay. In kind it is cell-based. Particulars: S. epidermidis (+); LB broth, 37° C.
Source text: as §1, §2

The test system of data set [7] is Lactococcus garvieae ATCC2155. Description: Broth microdilution MIC assay. In kind it is cell-based. Particulars: L. garvieae (+); LB broth, 37° C.
Source text: as §1, §2

For data set [8], the system named is Escherichia coli ATCC 11229. Put plainly: Broth microdilution MIC assay. In kind it is cell-based. Particulars: E. coli (−); LB broth, 37° C.
Source text: as §1, §2

Read-outs that look alike come from different tables or passages of the source.

For `[CH3][Hg][Cl]` [methylmercury], the half-life result in data set [1] was “about 50 days”; in data set [2], “about 72 days”.
Take Poly(hexamethylene biguanide) [PHMBG]: the “Minimum inhibitory concentrations (MIC)” value in the data set on Staphylococcus aureus was 5 µg/mL; in [3], 1.6 µg/mL; in data set [4], 20 µg/mL; in data set [5], 110 µg/mL; in the data set with Pseudomonas aeruginosa, 30 µg/mL; in data set [6], 0.5 µg/mL. The “Minimum inhibitory concentrations (MIC)” value amounted to 40 µg/mL in data set [7] and 5 µg/mL in data set [8].

The record behind these values is patent publication US8992985B2, “Core-shell magnetic particles and related methods” (priority 2010, dated 2015).
